Columns and labels:
[1] = system: PC-3; assay: Alkaline comet assay; type: cell-based, human; settings: PC-3, alkaline, 24 h
Procedure: (§1) The alkaline version of the comet assay was performed according to Singh et al. (1988), with modifications. BxPC-3 and PC-3 cancer cells and normal human fibroblasts (WI-38) were seeded at a density of 1.2 × 10^5/mL onto 12-well plates. […] The experimental design included negative controls (cells treated with DMSO at 0.4% for 24 h at 37 °C). Cells were left for incubation for another 24 h (37 °C; 5% CO2). After exposure, they were transferred to Eppendorf tubes and centrifuged at 1400 rpm for 10 min at 4 °C. Afterward, the supernatant was removed, and the precipitate was diluted in PBS. The next steps were performed as previously described by Kontek and Nowicka.
(§2) After electrophoresis (conditions: 12 V, 300 mA, 25 min), slides were stained with 1 µg/mL of the intercalating agent 4′,6-diamidino-2-phenylindole (DAPI) and coverslipped. DNA damage was assessed with a fluorescence microscope at 360 nm using CellSens (Olympus) software. A total number of approximately 50 cells per slide was chosen for further analysis.
(§3) […] This parameter provides a very clear picture of what the actual appearance of the comets was like. […] The data were presented with an interquartile range and minimal and maximal values using Graphpad Prism 7. Statistical analysis of comet assay results was performed using Statistica software. The Kruskal–Wallis test was used to show a statistically significant difference between groups. Multiple comparisons using mean ranks for all groups module of Statistica software were used. A p-value less than 0.05 was considered statistically significant. In all groups, N > 200.

[2] = system: BxPC-3; assay: Alkaline comet assay; type: cell-based, human; settings: BxPC-3, alkaline, 24 h
Procedure: as §1, §2, §3

[3] = system: WI-38; assay: Alkaline comet assay; type: cell-based, human; settings: WI-38, alkaline; for mean tail DNA % / median tail DNA %: 24 h
Procedure: as §1, §2, §3

[4] = system: BxPC-3; assay: Neutral comet assay; type: cell-based, human; settings: 24 h
Procedure: (§4) The majority of the neutral comet assay steps were performed analogously to the alkaline version except for the electrophoresis step. In contrast to the alkaline comet assay, electrophoresis was performed in a buffer comprising 100 mM TRIS and 300 mM sodium acetate with the pH of the solution adjusted to 9.0 by glacial acetic acid, as described previously by Bukowski et al.. Electrophoresis was run at 12 V, 50 mA for 60 min. Cells were washed with distilled water twice, stained with DAPI, and analyzed as described for the alkaline comet assay.
CASP: Comet Assay Software Project Lab (http://casplab.com (accessed on 1 January 2023)) was used to establish the median value of DNA (%) in comet tails. This parameter provides a very clear picture of what the actual appearance of the comets was like. […] The data were presented with an interquartile range and minimal and maximal values using Graphpad Prism 7. Statistical analysis of comet assay results was performed using Statistica software. The Kruskal–Wallis test was used to show a statistically significant difference between groups. Multiple comparisons using mean ranks for all groups module of Statistica software were used. A p-value less than 0.05 was considered statistically significant. In all groups, N > 200.

[5] = Alamar blue assay; type: cell-based; settings: human
Procedure: Alamar blue works as a non-toxic and membrane-permeable redox indicator that is often used to assess the metabolic activity of cells. Over the past 50 years, the alamar blue reagent has been used to measure cell viability and cytotoxicity in a variety of cell types. In this study, alamar blue (BioRAD) was used to assess cell viability before the performance of the neutral comet assay. Nunc microtiter, flat-bottomed 96-well plates were seeded at a density of approximately 1 × 10^4 cells per 100 µL medium per well. Following the given incubation period in controlled conditions (37 °C; 5% CO2), cells were exposed to 11 different concentrations of tested compounds in DMSO (range 0.05–3 µM) in a volume of 100 µL medium per well. The final solvent concentration was <0.5% v/v. The experimental design included negative controls and blanks (wells without cells).
Following a 24 h incubation period, 20 µL of alamar blue was added to each well of the experimental plate. Cells were incubated in a humidified atmosphere for 4 h (37 °C; 5% CO2). The absorbance reading was performed at 570 and 600 nm using a spectrophotometer (microplate reader Power Wave XS BioTek Instruments, Inc., USA). The experiments were performed in triplicate.
The percentage difference between treated and control cells was calculated using the formula provided by the producer (BioRad). (1) Percentage difference between treated and control cells=O2×A1 −O1×A2 /O2×P1−O1×P2×100

[6] = system: PC-3; assay: Trypan blue staining; type: cell-based, human; settings: PC-3, 0.5, 1 and 2 × IC50, 24 h, 37 °C
Procedure: (§5) Trypan blue is a diazo dye that has been used for viability assessment for years. Viable cells with undamaged cellular membranes are resistant to staining and thus allow the discrimination from blue-stained dead cells with disrupted membranes. Cells were seeded at a density of 1.5 × 10^5/mL onto 12-well plates. […] Cells were left for incubation for another 24 h (37 °C; 5% CO2). After exposure, they were transferred to Eppendorf tubes and centrifuged at 1400 rpm for 10 min at 4 °C. Afterward, the supernatant was removed, and the precipitate was diluted in PBS. Cell suspensions were mixed with 0.4% trypan blue solution in a 1:1 ratio. Approximately 300 cells were counted under a light microscope. The experiment was repeated three times. The results were represented as mean viability (%) with SD values.

[7] = system: BxPC-3; assay: Trypan blue staining; type: cell-based, human; settings: BxPC-3, 0.5, 1 and 2 × IC50, 24 h, 37 °C
Procedure: as §5

[8] = system: WI-38; assay: Trypan blue staining; type: cell-based, human; settings: WI-38, 0.5, 1 and 2 × IC50, 24 h, 37 °C
Procedure: as §5

[9] = system: PC-3; design: method as in PMID 35682571; settings: PC-3, 72 h incubation, MTT assay, mean; read-out: IC50 Value ± SD; cited from earlier work
[10] = system: BxPC-3; design: method as in PMID 35682571; settings: BxPC-3, 72 h incubation, MTT assay, mean; read-out: IC50 Value ± SD; cited from earlier work
[11] = system: PC-3; assay: γH2AX staining; type: cell-based, human; settings: PC-3, IC50 concentration, 24 h, foci per cell
Procedure: PC-3 cells were seeded at a density of 3 × 10^4/mL onto round coverslips placed on the bottom of 12-well plates. […] After 24 h, cells were washed once with cold PBS and placed in 4% paraformaldehyde (PHA) in PBS for 10 min. at room temperature. After that, PHA was removed, and cells were permeabilized using 0.1% Triton X-100 for 10 min at 20 °C, followed by incubation in a blocking solution (1 mL/well) containing 2.5% BSA, 1.5% goat serum, and 0.1% Triton X-100 in PBS for 10 min at room temperature. The blocking solution was removed, and coverslips containing cells were incubated with anti-γ-H2AX primary antibodies in blocking solution (anti-gamma-H2AX (phosphor-Ser139) (Abcam, Cambridge, UK; 1:100)) for 1 h at room temperature. Cells were transferred into 12-well plates, washed twice in PBS (5 min each), transferred to plates, and incubated with Goat anti-Mouse IgG Cross-adsorbed antibody, Alexa Fluor 488 (Invitrogen; 1:500 in PBS) for 1 h at room temperature. Cells were washed twice in PBS, followed by incubation with DAPI solution (1 µg/mL) for 10 min at room temperature and two washes in PBS and distilled water. Coverslips were removed using tweezers and placed on microscope slides with a drop of Fluoromount-G mounting medium. The slides were placed flat at room temperature for 24 h and then stored at 4 °C. The slides were analyzed with a fluorescence microscope using CellSens (Olympus) software. A total number of approximately 100 cells per slide was chosen for further analysis. The experiment was performed in duplicate. In BxPC-3 cells, inefficient or non-specific staining was observed despite attempts to optimize the assay. Therefore, we discontinued further work on these cells with the assay.
Images for green γ-H2AX (Alexa Fluor 488) and blue nuclear signals (DAPI) were taken using an Olympus camera. ImageJ software “find maxima” and “count” functions were used to determine the number of γ-H2AX foci in each cell. The “preview point selection” option and “prominence” were chosen based on the accuracy of coverage of γ-H2AX foci. Data were analyzed using GraphPad Prism 7.0 software system (GraphPad Prism Software Inc., USA) and Statistica software. The Kruskal–Wallis test was used to show a statistically significant difference between groups. Multiple comparisons using mean ranks for all groups module of Statistica software were used. A p-value less than 0.05 was considered statistically significant (p < 0.05). In all groups, N > 200.

[12] = system: PC-3; assay: Neutral comet assay; type: cell-based, human; settings: 24 h
Procedure: as §4, §3

[13] = system: WI-38; design: method as in PMID 35682571; settings: WI-38 (head prints WI-28), 72 h incubation, MTT assay, mean; read-out: IC50 Value ± SD; cited from earlier work
[14] = system: BxPC-3 and PC-3 cancer cell lines; design: method as in PMID 35682571; settings: BxPC-3 and PC-3, 72 h MTT assay; read-out: IC50 (range over cancer cell lines); cited from earlier work
[15] = BxPC-3, neutral, positive control 20 µM
[16] = PC-3, neutral, positive control 20 µM

Row | Compound | mean tail DNA % ([1]; IC50 concentration) [%] | median tail DNA % ([1]; IC50 concentration) [%] | mean tail DNA % ([2]; IC50 concentration) [%] | median tail DNA % ([2]; IC50 concentration) [%] | mean tail DNA % ([3]; IC50 concentration) [%] | median tail DNA % ([3]; IC50 concentration) [%] | mean tail DNA % (double-strand breaks) ([4]; human) [%] | median tail DNA % (double-strand breaks) ([4]; human) [%] | viability at 24 h, 3 µM ([5]; PC-3 cells, PC-3, 3 µM) [%] | IC50 [9] [nM] | IC50 [10] [nM] | mean number of γH2AX foci [11] | median number of γH2AX foci [11] | mean tail DNA % (double-strand breaks) ([12]; human) [%] | median tail DNA % (double-strand breaks) ([12]; human) [%] | IC50 [13] [nM] | other results
1 | Cc1nn(-c2ccc(S(=O)(=O)NCCN3CCOCC3)cc2)c2nn3nnnc3nc12 [MM134] | 7.37 | 1.03 | 10.9 | 2.5 | 4.19 | 1.5 | 5.11 | 4.21 | 55.8 ± 5.27 | 160 ± 20 | 320 ± 100 | 25.8 | 21 | 5.72 | 4.09 |  | DNA damage compared with negative and positive control (in words) ([3]; 0.5 × IC50, IC50, 2 × IC50, 24 h, p < 0.05): statistically significant increase in DNA damage; cell viability [6]: highest reduction in cell viability; cell viability [7]: highest reduction in cell viability; cell viability [8]: highest reduction in cell viability
2 | Cc1nn(-c2ccc(S(=O)(=O)N3CCOCC3)cc2)c2nn3nnnc3nc12 [MM136] | 12.08 | 1.63 | 14.36 | 8.28 | 0.72 | 0.01 | 5.08 | 4.10 |  | 130 ± 10 | 250 ± 80 | 14.71 | 11 | 8 | 4.6 | 480 ± 90 | 
3 | Cc1nn(-c2ccc(S(=O)(=O)N3CCN(C)CC3)cc2)c2nn3nnnc3nc12 [MM137] | 11.05 | 2.32 | 12.07 | 3.28 | 1.26 | 0.09 |  |  |  | 110 ± 7 | 160 ± 40 | 17.52 | 15 | 4.45 | 2.82 | 270 ± 40 | 
4 | Cc1nn(-c2ccc(S(=O)(=O)N3CCCCC3)cc2)c2nn3nnnc3nc12 [MM139] | 14.22 | 3.35 | 10.85 | 4.74 | 2.97 | 0.085 | 4.86 | 3.72 | 88.4 ± 1.72 | 170 ± 3 | 330 ± 140 | 15.37 | 12 | 6.07 | 5 | 540 | viability at 24 h, 3 µM ([5]; BxPC-3 cells, BxPC-3, 3 µM): 75.3 ± 0.99%; IC50 [14]: 170 to 330 nM
5 | bleomycin [reference compound] |  |  |  |  |  |  |  |  |  |  |  |  |  |  |  |  | mean tail DNA % ([1]; positive control 20 µM): 22.07%; median tail DNA % ([1]; positive control 20 µM): 19.31%; mean tail DNA % ([2]; positive control 20 µM): 48.3%; median tail DNA % ([2]; positive control 20 µM): 50.8%; mean tail DNA % ([3]; positive control 20 µM): 32.6%; median tail DNA % ([3]; positive control 20 µM): 29.13%; mean tail DNA % (double-strand breaks) [4, 15]: 11.15%; median tail DNA % (double-strand breaks) [4, 15]: 9.7%; mean tail DNA % (double-strand breaks) [12, 16]: 12.9%; median tail DNA % (double-strand breaks) [12, 16]: 10.4%

— paper PMC9966268, “Genotoxicity of Novel Pyrazolo[4,3-e]tetrazolo[1,5-b][1,2,4]triazine Sulfonamides in Normal and Cancer Cells In Vitro” (International Journal of Molecular Sciences, 2023)
